Reference: patent publication US20210403858A1, “Bacillus strain and microbial preparation of bacillus and method of using microbial preparation” (ROLLING GREENS CO., LTD., priority 2020, published 2021)

Legend:
rice seedlings = test: IAA sensitivity test on rice seedlings; format: in vivo; details: 4 days
Method: Taking rice and lettuce for example, IAA sensitivity of the microbial preparation is tested in steps of: disinfecting and germinating rice seedlings; putting the rice seedlings in a sterilized Petri dish in which a filter paper is disposed; […]; moving the sterilized Petri dish into a plant growth box for 4 days; measuring an average height of buds of the rice seedlings and an average height of roots of the rice seedlings;

lettuce = test: IAA sensitivity test on lettuce; format: in vivo
Method: disinfecting seeds of the lettuce with 5% sodium hypochlorite and putting the seeds of the lettuce in another sterilized Petri dish in which a filter paper is disposed; adding 3 mL of 0.03 μM, 3 μM, 30 μM, and 300 μM of IAA aqueous solutions respectively; moving another sterilized Petri dish into another plant growth box for 3 days; and measuring a germination rate and a height of each lettuce and a length of a root of each lettuce.

## O=C(O)Cc1c[nH]c2ccccc12 [IAA]
Rice seedlings; IAA 0.03 μM to 30 μM, FIG. 1
  growth of the roots of the rice seedlings: does not promote a growth of the roots
Rice seedlings; IAA 300 μM
  growth of the roots of the rice seedlings: limited
lettuce; IAA 0.03 μM, 3 days (no IAA: 5.3 mm)
  height of lettuce sprouts: 3.5 mm
lettuce; IAA 0.03 μM, 3 days (no IAA: 14.8 mm)
  length of lettuce roots: 8.8 mm
lettuce; IAA 300 μM, 3 days (no IAA: 78%)
  germination rate of the seeds of the lettuce: 13%
